US20230114241A1, “METHODS OF TREATING EPILEPSY USING THE SAME” (Trevena, Inc., priority 2019, published 2023)

Assays:
[1] = test system: peripheral blood lymphocytes; assay: Lymphopenia: peripheral blood lymphocyte counts, acute and chronic s.c. dosing; type: in vivo; conditions: 7 days, c57bl/6 mice; for Lymphopenia effect (change in peripheral blood lymphocytes): vs vehicle
Description: Compounds were tested for changes in peripheral blood lymphocytes in C57bl/6 mice. In acute studies, animals (n=5/group) were dosed subcutaneously with test compound at a dose of 3 mg/kg. Animals were sacrificed at specific time points and […] of whole blood was collected in EDTA (K2) Eppendorf tubes. Blood was stored on ice and shipped immediately overnight delivery to Charles River Laboratories for analysis. CRL ran samples through their WBC/differential panel on an Advia 120 instrument. We received peripheral lymphocyte counts (10^3 cells/μl) for each blood sample. Treatment group means were compared to a vehicle treatment group for statistical significance. In chronic studies, animals (n=6-8/group) were dosed subcutaneously for three to seven days with test compound at doses that were at least 5-fold higher than the efficacious dose in pharmacology/behavioral assays. On the last day, animals were sacrificed 45 minutes to 6 hrs after the final dose. Whole blood was collected and analyzed as described for acute studies. […]

[2] = biological target: T1, human sphingosine-1-phosphate receptor 1 (S1P1) (Homo sapiens, UniProt P21453); assay: Inhibition of cAMP production (HTRF cAMP HiRange), S1P1 CHO-K1 cells; type: cell-based; conditions: for EC50: read-out: hS1P1 CAMP pEC50 (converted); for Emax: CHO-K1, efficacy normalized to maximum efficacy of fingolimod, read-out: hS1P1 CAMP SPAN
Summary of the method: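 Intracellular cAMP changes read by TR-FRET (HTRF HiRange, 1 h room temperature) after 30 min compound exposure at 37 °C. Cells: overnight-plated CHO-K1 stably expressing tagged human S1P1 with EA-β-arrestin2. Responses normalized to fingolimod.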
Target sequence in this assay (P21453 whole entry): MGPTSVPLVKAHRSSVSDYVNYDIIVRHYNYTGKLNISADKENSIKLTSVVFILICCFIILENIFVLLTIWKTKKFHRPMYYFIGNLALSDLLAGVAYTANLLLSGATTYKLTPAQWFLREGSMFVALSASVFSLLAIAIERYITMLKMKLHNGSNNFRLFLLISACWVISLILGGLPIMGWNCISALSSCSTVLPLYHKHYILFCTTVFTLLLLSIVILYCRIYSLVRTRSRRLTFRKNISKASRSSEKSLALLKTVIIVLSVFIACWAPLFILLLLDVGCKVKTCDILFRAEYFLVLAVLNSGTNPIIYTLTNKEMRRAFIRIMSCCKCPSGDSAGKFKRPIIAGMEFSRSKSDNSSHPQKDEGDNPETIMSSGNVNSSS

[3] = biological target: sphingosine-1-phosphate receptor 5 (S1P5) (Homo sapiens, UniProt Q9H228); assay: Selectivity: inhibition of cAMP production (HTRF), S1P5 CHO-K1 cells; type: cell-based; conditions: for Emax: CHO-K1, efficacy normalized to maximal efficacy of fimgolimod, read-out: hS1P5 cAMP SPAN; for EC50: inhibition of cAMP production, read-out: hS1P5 cAMP pEC50 (converted)
Description: (§1) Cell Culturing and Assay Plating Cell lines were cultured in AssayComplete™ Media 6 (DiscoverX Corporation, Cat #: 920018GF2) at 37° C. and 5% CO2 in a humidified CO2 and temperature-controlled incubator. To begin assay plating, cells were washed with Dulbecco's phosphate buffered saline (CellGro, Cat #: 21-031-CV) and lifted from the culturing flask by incubation (37° C., 5 min) with CellStripper (Cellgro, Cat #: 25-056-CI). […] Plated cells were incubated overnight at 37° C. and 5% CO2 in a humidified CO2 and temperature-controlled incubator. Detecting Inhibition of cAMP Production
(§2) S1P3 and S1P5 Agonist-promoted G-protein responses were determined by measuring changes in intracellular cAMP using the HTRF® cAMP HiRange kit (CisBio, Cat #: 62AM6PEJ) based on time-resolved fluorescence resonance energy transfer (TR-FRET) technology. […] Following a 30-minute room temperature incubation the components of the cAMP HiRange kit were added as per the manufacturer's instructions. After an hour incubation at room temperature, plates were analyzed by a BMG PheraStar microplate reader.
(§3) These values are normalized to fimgolimod, a known agonist of the sphingosine-1-phosphate 3 and 5 receptor or CYM5520, a known agonist of the sphingosine-1-phosphate 2 receptor. The tables also include potency values (pEC50) for modulating discrete receptor-mediated activities (inhibition of cAMP production or inositol monophosphate accumulation).

[4] = biological target: T1, human sphingosine-1-phosphate receptor 1 (S1P1); assay: β-Arrestin2 recruitment assay (PathHunter), S1P1 CHO-K1 cells; type: cell-based; conditions: for Emax: efficacy normalized to maximum efficacy of fingolimod, read-out: hS1P1 B-arrestin2 SPAN; for EC50: β-arrestin2 recruitment, read-out: hS1P1 B-arrestin2 pEC50 (converted)
Summary of the method: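 Agonist-driven β-arrestin2 recruitment measured by β-galactosidase complementation after 60 min compound exposure at 37 °C and 1 h detection at room temperature. Cells: stable CHO-K1 line expressing tagged human S1P1 with EA-β-arrestin2, plated the night before. Data expressed relative to fingolimod.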
Target sequence in this assay (P21453 whole entry): as above
Target sequence in this assay (P32121 whole entry partner): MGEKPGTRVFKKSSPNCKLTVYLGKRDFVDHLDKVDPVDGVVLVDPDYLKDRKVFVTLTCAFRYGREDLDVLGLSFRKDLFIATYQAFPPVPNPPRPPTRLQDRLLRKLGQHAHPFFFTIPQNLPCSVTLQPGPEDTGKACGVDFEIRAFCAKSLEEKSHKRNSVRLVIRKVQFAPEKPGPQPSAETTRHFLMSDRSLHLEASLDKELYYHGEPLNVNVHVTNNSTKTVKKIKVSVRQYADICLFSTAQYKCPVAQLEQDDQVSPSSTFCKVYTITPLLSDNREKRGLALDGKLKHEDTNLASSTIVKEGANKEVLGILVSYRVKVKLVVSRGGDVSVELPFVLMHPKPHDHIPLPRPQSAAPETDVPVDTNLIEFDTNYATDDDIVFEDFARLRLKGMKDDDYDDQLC

[5] = biological target: human sphingosine-1-phosphate receptor 2 (S1P2) (Homo sapiens, UniProt O95136); assay: Selectivity: inositol monophosphate production (IP-one), S1P2 CHO-K1 cells; type: cell-based; conditions: for Emax: CHO-K1, efficacy normalized to maximal efficacy of CYM5520, read-out: hS1P2 IP-one SPAN; for EC50: inositol monophosphate accumulation, read-out: hS1P2 IP-one pEC50 (converted)
Description: as §1
S1P2 Agonist-promoted G-protein responses were determined by measuring changes in intracellular inositol monophosphate using the IP-one TB kit (CisBio, Cat #: 62IPAPEJ) based on time-resolved fluorescence resonance energy transfer (TR-FRET) technology. AssayComplete™ Cell Plating 2 Reagent was removed and replaced with 1× IP-one stimulation buffer (as per manufacturer's instructions) along with test or control compounds at the desired concentrations.
Following a 60-minute incubation at 37° C. and 5% CO2 in a humidified CO2 and temperature-controlled incubator, the components of the IP-one TB kit were added as per the manufacturer's instructions. After an hour incubation at room temperature, plates were analyzed by a BMG PheraStar microplate reader.
as §3

[6] = biological target: human sphingosine-1-phosphate receptor 3 (S1P3) (Homo sapiens, UniProt Q99500); assay: Selectivity: inhibition of cAMP production (HTRF), S1P3 CHO-K1 cells; type: cell-based; conditions: for Emax: CHO-K1, efficacy normalized to maximal efficacy of fimgolimod, read-out: hS1P3 cAMP SPAN; for EC50: inhibition of cAMP production, read-out: hS1P3 cAMP pEC50 (converted)
Description: as §1, §2, §3

[7] = inhibition of cAMP production, potency
[8] = inhibition of cAMP production, S1P1
[9] = CHO-K1, β-arrestin2 recruitment

human sphingosine-1-phosphate receptor 2 (S1P2), sequence (O95136 whole entry): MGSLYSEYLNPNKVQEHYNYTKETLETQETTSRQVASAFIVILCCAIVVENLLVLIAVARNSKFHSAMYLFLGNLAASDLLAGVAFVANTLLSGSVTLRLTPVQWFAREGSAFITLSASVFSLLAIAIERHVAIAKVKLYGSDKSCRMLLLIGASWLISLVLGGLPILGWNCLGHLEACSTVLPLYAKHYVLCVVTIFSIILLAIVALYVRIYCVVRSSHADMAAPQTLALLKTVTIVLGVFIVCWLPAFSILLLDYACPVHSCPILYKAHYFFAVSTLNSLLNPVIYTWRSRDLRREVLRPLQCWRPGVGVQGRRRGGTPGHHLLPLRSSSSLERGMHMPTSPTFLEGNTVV
human sphingosine-1-phosphate receptor 3 (S1P3), sequence (Q99500 whole entry): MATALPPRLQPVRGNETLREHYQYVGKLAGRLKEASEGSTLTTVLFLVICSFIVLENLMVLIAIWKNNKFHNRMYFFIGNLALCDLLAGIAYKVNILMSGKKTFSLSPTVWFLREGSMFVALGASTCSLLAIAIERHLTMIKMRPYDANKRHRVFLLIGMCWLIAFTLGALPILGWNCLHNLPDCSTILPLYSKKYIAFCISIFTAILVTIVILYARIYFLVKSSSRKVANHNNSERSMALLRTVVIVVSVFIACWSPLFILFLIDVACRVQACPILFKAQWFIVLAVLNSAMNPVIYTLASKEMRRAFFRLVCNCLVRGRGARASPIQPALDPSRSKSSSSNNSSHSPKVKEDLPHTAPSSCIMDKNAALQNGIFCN
sphingosine-1-phosphate receptor 5 (S1P5), sequence (Q9H228 whole entry): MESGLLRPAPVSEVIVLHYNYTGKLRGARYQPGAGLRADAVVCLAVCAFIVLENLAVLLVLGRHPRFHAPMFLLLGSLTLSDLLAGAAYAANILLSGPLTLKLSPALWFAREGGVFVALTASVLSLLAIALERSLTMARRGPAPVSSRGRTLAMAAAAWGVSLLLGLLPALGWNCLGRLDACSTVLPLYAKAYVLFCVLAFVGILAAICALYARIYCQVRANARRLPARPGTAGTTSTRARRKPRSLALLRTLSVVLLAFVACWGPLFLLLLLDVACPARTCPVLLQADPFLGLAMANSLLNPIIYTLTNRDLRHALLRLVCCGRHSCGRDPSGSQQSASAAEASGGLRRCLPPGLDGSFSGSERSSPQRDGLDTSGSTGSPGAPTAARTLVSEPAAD

## CCC1(CC)CC(=O)c2cc(-c3nc(-c4cccnc4OC)no3)ccc2O1 [Compound 147, 2,2-diethyl-6-(3-(2-methoxypyridin-3-yl)-1,2,4-oxadiazol-5-yl)chroman-4-one]
[1]; 6 mg/kg sc
  Lymphopenia effect (peripheral blood lymphocytes): no change: 6 mg/kg, 7 days
[2]; [7]
  EC50: < 0.316 µM

## Cc1ccncc1-c1noc(-c2ccc3c(c2)nnn3C2CCC2)n1 [Compound 417, 1-cyclobutyl-5-[3-(4-methylpyridin-3-yl)-1,2,4-oxadiazol-5-yl]-1H-1,2,3-benzotriazole]
[3]
  Emax: < 50%
  EC50: > 10 µM
[4]; CHO-K1
  Emax: > 75%
[4]; S1P1
  EC50: < 10 µM
[2]
  Emax: > 75%
[2]; [8]
  EC50: < 0.316 µM
[5]
  Emax: < 50%
  EC50: < 10 µM
[6]
  Emax: < 50%
  EC50: > 10 µM

## Cc1ccccc1-c1noc(-c2ccc3c(c2)nnn3C(C)C)n1 [Compound 293, 5-[3-(2-methylphenyl)-1,2,4-oxadiazol-5-yl]-1-(propan-2-yl)-1H-1,2,3-benzotriazole]
[1]; 6 mg/kg sc
  Lymphopenia effect (peripheral blood lymphocytes): no change: 6 mg/kg, 7 days
[2]; [7]
  EC50: < 0.316 µM

## C=CCNc1ccc(-c2nc(-c3ccc4sc(N)nc4c3)no2)cc1C#N [Compound 267, 2-(allylamino)-5-(3-(2-aminobenzo[d]thiazol-5-yl)-1,2,4-oxadiazol-5-yl)benzonitrile]
[3]
  Emax: < 50%
  EC50: > 10 µM
[4]; [9]
  Emax: < 75%
[4]; potency
  EC50: < 10 µM
[2]; inhibition of cAMP production
  Emax: < 75%
[2]; [7]
  EC50: < 0.316 µM
[5]
  Emax: < 50%
  EC50: > 10 µM
[6]
  Emax: < 50%
  EC50: > 10 µM

## CC(C)n1nnc2cc(-c3nc4c(o3)Cc3ccccc3-4)ccc21 [Compound 219, 5-{8H-indeno[1,2-d][1,3]oxazol-2-yl}-1-(propan-2-yl)-1H-1,2,3-benzotriazole]
[3]
  Emax: < 50%
  EC50: > 10 µM
[4]; [9]
  Emax: > 75%
[4]; potency
  EC50: < 10 µM
[2]; inhibition of cAMP production
  Emax: < 75%
[2]; [7]
  EC50: < 0.316 µM
[5]
  Emax: < 50%
  EC50: < 10 µM
[6]
  Emax: < 50%
  EC50: > 10 µM

## CC(C)Nc1ccc(-c2nnc(-c3ccc4[nH]cnc4c3)o2)cc1C#N [Compound 356, 5-[5-(1H-1,3-benzodiazol-5-yl)-1,3,4-oxadiazol-2-yl]-2-[(propan-2-yl)amino]benzonitrile]
[1]; 6 mg/kg sc
  Lymphopenia effect (peripheral blood lymphocytes): no change: 6 mg/kg, 7 days
[2]; [7]
  EC50: < 0.316 µM

## Cc1cnccc1-c1nc(-c2ccc3c(c2)nnn3C(C)C)no1 [Compound 8, 3-(1-isopropyl-1H-benzo[d][1,2,3]triazol-5-yl)-5-(3-methylpyridin-4-yl)-1,2,4-oxadiazole]
[1]; 6 mg/kg sc
  Lymphopenia effect (peripheral blood lymphocytes): no change: 6 mg/kg, 7 days
[2]; [7]
  EC50: > 0.316 µM

## Cc1cnccc1-c1nc(-c2ccc3c(ccn3C(C)C)c2)no1 [Compound 142, 3-(1-isopropyl-1H-indol-5-yl)-5-(3-methylpyridin-4-yl)-1,2,4-oxadiazole]
[1]; 6 mg/kg sc
  Lymphopenia effect (peripheral blood lymphocytes): no change: 6 mg/kg, 7 days
[2]; [7]
  EC50: < 0.316 µM

## COc1cc(NC(C)=O)ccc1-c1noc(-c2ccc(NC(C)C)c(C#N)c2)n1 [Compound 731, N-[4-(5-{3-cyano-4-[(propan-2-yl)amino]phenyl}-1,2,4-oxadiazol-3-yl)-3-methoxyphenyl]acetamide]
[1]; 6 mg/kg sc
  Lymphopenia effect (change in peripheral blood lymphocytes): −78% stat sig: 6 mg/kg, 7 days

## CCC1(CC)CC(=O)c2cc(-c3nc(-c4ccnc(O)c4)no3)ccc2O1 [Compound 263, 2,2-diethyl-6-[3-(2-hydroxy-4-pyridyl)-1,2,4-oxadiazol-5-yl]chroman-4-one]
[3]
  Emax: < 50%
  EC50: > 10 µM
[4]; [9]
  Emax: > 75%
[4]; potency
  EC50: < 10 µM
[2]; inhibition of cAMP production
  Emax: > 75%
[2]; [7]
  EC50: < 0.316 µM
[5]
  Emax: < 50%
  EC50: > 10 µM
[6]
  Emax: < 50%
  EC50: > 10 µM

## COc1cnccc1-c1nc(-c2ccc3c(ccn3C(C)C)c2)no1 [Compound 391, 3-(1-isopropyl-1H-indol-5-yl)-5-(3-methoxypyridin-4-yl)-1,2,4-oxadiazole]
[3]
  Emax: < 50%
  EC50: < 10 µM
[4]; CHO-K1
  Emax: > 75%
[4]; S1P1
  EC50: < 10 µM
[2]
  Emax: > 75%
[2]; [8]
  EC50: < 0.316 µM
[5]
  Emax: < 50%
  EC50: < 10 µM
[6]
  Emax: > 50%
  EC50: < 10 µM

## CC(C)Oc1ccc(-c2nc(-c3ccc4c(c3)nnn4C(C)C)no2)cc1C#N [Compound 22, 2-isopropoxy-5-(3-(1-isopropyl-1H-benzo[d] [1,2,3]triazol-5-yl)-1,2,4-oxadiazol-5-yl)benzonitrile]
[1]; 3 mg/kg sc
  Lymphopenia effect (peripheral blood lymphocytes): no change: 3 mg/kg, 7 days

## Cc1ccccc1-c1noc(-c2ccc3c(c2)nnn3CC(C)C)n1 [Compound 96, 5-[3-(2-methylphenyl)-1,2,4-oxadiazol-5-yl]-1-(2-methylpropyl)-1H-1,2,3-benzotriazole]
[1]; 6 mg/kg sc
  Lymphopenia effect (peripheral blood lymphocytes): no change: 6 mg/kg, 7 days
[2]; [7]
  EC50: < 0.316 µM

## CCC1(CC)CC(=O)c2cc(-c3nc(-c4ccc5[nH]ncc5c4)no3)ccc2O1 [Compound 152, 6-(3-(1H-indazol-5-yl)-1,2,4-oxadiazol-5-yl)-2,2-diethyl-chroman-4-one]
[3]
  Emax: < 50%
  EC50: > 10 µM
[4]; [9]
  Emax: > 75%
[4]; potency
  EC50: < 10 µM
[2]; inhibition of cAMP production
  Emax: > 75%
[2]; [7]
  EC50: > 0.316 µM
[5]
  Emax: < 50%
  EC50: > 10 µM
[6]
  Emax: < 50%
  EC50: > 10 µM

## CCC1(CC)CC(=O)c2cc(-c3nc(-c4cccnc4)no3)ccc2O1 [Compound 103, 2,2-diethyl-6-[3-(pyridin-3-yl)-1,2,4-oxadiazol-5-yl]-3,4-dihydro-2H-1-benzopyran-4-one]
[1]; 6 mg/kg sc
  Lymphopenia effect (peripheral blood lymphocytes): no change: 6 mg/kg, 7 days
[2]; [7]
  EC50: < 0.316 µM

## CC(C)Nc1ccc(-c2ncc(-c3cccnc3)cn2)cc1C#N [Compound 737, 2-(isopropylamino)-5-(5-(pyridin-3-yl)pyrimidin-2-yl)benzonitrile]
[1]; 6 mg/kg sc
  Lymphopenia effect (change in peripheral blood lymphocytes): −40% not stat sig: 6 mg/kg, 7 days

## CC(F)(F)CNc1ccc(-c2nnc(-c3ccc4[nH]cnc4c3)o2)cc1C#N [Compound 520, 5-[5-(1H-1,3-benzodiazol-5-yl)-1,3,4-oxadiazol-2-yl]-2-[(2,2-difluoro-propyl)amino]benzonitrile]
[1]; 6 mg/kg sc
  Lymphopenia effect (peripheral blood lymphocytes): no change: 6 mg/kg, 7 days
[2]; [8]
  EC50: < 0.316 µM
